Test results from patent US9944967B2, “Methods for the site-selective introduction of halogen into natural products” (THE REGENTS OF THE UNIVERSITY OF CALIFORNIA, priority 2013, dated 2018).

Experiments:
DEBSMod6+TE [1] = experiment: Time-course of TKL and F-TKL formation by DEBSMod6+TE with substrate regeneration; assay type: biochemical
Protocol: Assay and preparative mixtures contained 400 mM sodium phosphate, pH 7.5, phosphoenolpyruvate (50 mM), TCEP (5 mM), magnesium chloride (10 mM), ATP (2.5 mM), pyruvate kinase (27 U/mL), myokinase (10 U/mL), CoA (0.5 mM), methylmalonyl-CoA epimerase (5 μM), MatB (40 μM or as specified) and fluoro- or methylmalonate (10-20 mM). […] This mixture was incubated at 37° C. for 30-45 min and then initiated by addition of the N-acetylcysteamine thioester of (2S,3R)-2-methyl-3-hydroxypentanoic acid (NDK-SNAC, 1-10 mM) (Cane, D. E., et al., J. Am. Chem., 115:527-535 (1993)) and DEBSMod6+TE (10 μM). Aliquots (35 μL) were removed and quenched by addition of 70% perchloric acid (1.75 μL). […] The supernatant was removed and analyzed on a Zorbax Eclipse XDB C-18 column (3.5 μm, 3×150 mm, 35° C., Agilent) using a linear gradient from 0 to 40% acetonitrile over 14 min with 0.1% formic acid as the aqueous mobile phase after an initial hold at 0% acetonitrile for 30 s (0.8 mL/min) Products were monitored using an Agilent G1315D diode array detector (TKL, A260 nm or A275 nm, F-TKL, A247 nm, NDK-SNAC; A260 nm). […] For absolute quantification, each analyte was compared to an external standard curve. […] The concentrations of TKL and H-TKL were determined by ^1H NMR in D2O using the ERETIC method against an external standard of diethylfluoromalonate (75 mM).

DEBSMod6+TE [2] = experiment: Triketide lactone production under competitive conditions; assay type: biochemical
Protocol: For reactions with substrate regeneration, assay mixtures contained 400 mM sodium phosphate, pH 7.5, phosphoenolpyruvate (50 mM), TCEP (5 mM), magnesium chloride (10 mM), ATP (2.5 mM), pyruvate kinase (27 U/mL), myokinase (10 U/mL), methylmalonyl-CoA epimerase (5 μM), NDK-SNAC (15 mM) and DEBSMod6+TE (10 μM). Reactions were initiated by simultaneous addition of MatB (40 μM), fluoromalonyl-CoA (1 μM) and malonyl-CoA (1 μM) and incubated at 37° C. for 18-20 h. Protein was removed by filtration through a 3 kDa NWCO membrane at 14,000×g and the filtrate was analyzed by LC-MS. Standards of H-TKL and F-TKL were prepared using a mock reaction mixture (acyl-CoAs replaced by CoAs and NDK-SNAC replaced by N-acetyl cysteamine) as diluent. TKLs were quantified using single ion monitoring, H-TKL in positive mode and F-TKL in negative mode. For reactions without substrate regeneration, assay mixtures contained 400 mM sodium phosphate, pH 7.5, TCEP (5 mM), methylmalonyl-CoA epimerase (5 μM), NDK-SNAC (3 mM) and DEBSMod6+TE (10 μM). Reactions were initiated by adding fluoromalonyl-CoA (1 mM) and malonyl-CoA (1 mM) simultaneously. The mixtures were incubated at 37° C. for 20 h, then quenched, processed and analyzed as described above. H-TKL was monitored using an Agilent 6130 MS operating in positive ion mode, and the limit of detection was verified by spiking samples to 50 nM H-TKL using a standard solution.

DEBSMod2/AT^0 = target: T1, DEBSMod2/AT^0 (Saccharopolyspora erythraea, UniProt Q03131, S2598A); experiment: Triketide lactone production using DEBSMod2/AT0; assay type: biochemical; details: overnight; for conversion of NDK-SNAC to R-TKL: NDK-SNAC (500 μM), respective acyl-CoA regeneration system
T1 construct: MBP (N); His6 (C); His6 (N); made in house; host or cells: E. coli BAP1 (pRARE2 co-expressed)
Protocol: All assay mixtures contained 400 mM sodium phosphate, pH 7.5, phosphoenolpyruvate (20 mM), TCEP (5 mM), magnesium chloride (5 mM), ATP (2.5 mM), pyruvate kinase (18 U/mL), myokinase (10 U/mL), methylmalonyl-CoA epimerase (5 μM), CoA (1 mM), MatB (20 μM), NDK-SNAC (500 μM) and either methylmalonate, fluoromalonate or malonate (5 mM) as appropriate. Reactions were initiated by addition of DEBSMod2/AT^0 (10 μM) and incubated at 37° C. overnight. Aliquots were removed, quenched by addition of HCl to 1 M, then processed and analyzed as described above.

[3] = target: T2, acetyl-CoA carboxylase (ACCase) (Escherichia coli, UniProt P0A9Q5+P0ABD5); experiment: Acetyl-CoA carboxylase discontinuous HPLC assay with AckA-Pta; assay type: biochemical, E. coli
T2 construct: made in house; host or cells: E. coli BL21(de3)T1R
Protocol: ACCase activity was measured using a discontinuous HPLC assay. Assays were performed at 30° C. in a total volume of 200 μL containing 50 mM HEPES, pH 7.5, TCEP (10 mM), bovine serum albumin (3 mg/mL), CoA (0.5 mM), ATP (2.5 mM), magnesium chloride (10 mM), sodium bicarbonate (75 mM), acetate or fluoroacetate (10 mM), phosphoenolpyruvate (10 mM), pyruvate kinase (4 U), AckA (0.1 μM), Pta (10 μM) and ACCase (15 μM). The pH of the buffer remained unchanged after addition of sodium bicarbonate. ACCase stock solution was prepared by pre-mixing the protein subunits at equimolar ratio (85 μM) except for AccB, which was added at 1.5-fold molar excess. The reaction was initiated with addition of ATP. Aliquots (20 μL) were removed and quenched by the addition of 70% perchloric acid (1 μL). Insoluble material was removed by centrifugation and the supernatant was analyzed on an Agilent 1200 or 1290 HPLC system on a LiChroCART 250-4 Purospher RP-18e column (5 μm, 4.6×250 mm, Millipore) and monitored at A260 nm. For reactions with acetate, a linear gradient from 2 to 20% acetonitrile over 10 min with 5 mM sodium phosphate and 5 mM sodium citrate with 0.1% trifluoroacetic acid, pH 4.6 as the aqueous mobile phase (1 mL/min) was used to analyze the reaction. […]

DEBSMod6+TE [4] = target: T3, DEBSMod6+TE (Saccharopolyspora erythraea, UniProt Q03133); experiment: Acyl-CoA hydrolysis by DEBSMod6+TE (DTNB assay); assay type: biochemical; details: for v0 (rate of acyl-CoA hydrolysis): DEBSMod6 + TE (1 μM), acyl-CoA (500 μM), mean ± s.d. (n = 4); for Relative rate of acyl-CoA hydrolysis: relative to methylmalonyl-CoA
T3 construct: the sixth module of DEBS, including the terminal thioesterase (DEBSMod6+TE); His6 (C); made in house; host or cells: E. coli BAP1
Protocol: Hydrolytic activity of DEBSMod6+TE was measured by monitoring the reaction of free CoA with DTNB as described previously (Huang, F., et al., Chem. Biol., 13:475-484 (2006)). Assays were performed at 37° C. in a total volume of 200 μL containing 400 mM sodium phosphate, pH 7.5, 500 μM DTNB, and DEBSMod6+TE (1 μM). Reactions were initiated by addition of acyl-CoA (0.5 mM) and monitored at 412 nm in a Beckman Coulter DU-800 spectrophotometer. Release of CoA was quantified by comparison to a standard curve (5-100 μM).

NphT7 = target: T4, NphT7 (Streptomyces sp., UniProt D7URV0); experiment: Acetoacetyl-CoA synthase NphT7 NADPH-coupled assay with PhaB; assay type: biochemical; details: NphT7 reaction product
T4 construct: made in house; host or cells: E. coli BL21(de3)T1R
T4 sequence (D7URV0 1-329): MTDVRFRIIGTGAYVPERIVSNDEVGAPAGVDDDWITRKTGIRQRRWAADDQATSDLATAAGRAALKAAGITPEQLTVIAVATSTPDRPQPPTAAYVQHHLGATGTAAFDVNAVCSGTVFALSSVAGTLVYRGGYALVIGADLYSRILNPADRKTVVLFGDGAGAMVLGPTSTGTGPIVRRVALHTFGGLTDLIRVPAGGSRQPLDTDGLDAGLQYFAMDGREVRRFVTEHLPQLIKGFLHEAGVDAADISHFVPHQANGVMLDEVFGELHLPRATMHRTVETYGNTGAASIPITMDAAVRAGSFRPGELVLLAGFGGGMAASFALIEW
Protocol: NphT7 activity was measured using a NADPH-coupled assay with PhaB. Assays were performed at 30° C. in a total volume of 500 μL containing 50 mM HEPES, pH 7.5, NADPH (160 μM), acetyl-CoA (200 μM), PhaB (0.05 mg/mL), NphT7 (0.2 μM for malonyl-CoA; 0.5 μM for fluoromalonyl-CoA) and malonyl-CoA (5-150 μM) or fluoromalonyl-CoA (5-200 μM). Reactions were initiated with the addition of malonyl- or fluoromalonyl-CoA and monitored at 340 nm in an Agilent 8453 diode array spectrophotometer. The PhaB-coupled assay was tested both by doubling NphT7, which doubled the initial velocity with both the fluorinated and non-fluorinated substrates, and also by doubling the amount of PhaB, which led to no difference in initial velocity.

[5] = MatB regeneration, equimolar malonyl-CoA and fluoromalonyl-CoA, mean ± s.d. (n = 3)

## CC[C@H]1OC(=O)[C@@H](F)C(=O)[C@H]1C [F-TKL, (2S,4S,5R)-2-fluoro-4-methyl-3-oxo-5-hydroxy-n-heptanoic Acid δ-lactone]
DEBSMod6+TE [1]; 10 mM NDK-SNAC
  Initial rate of F-TKL formation: 0.14 h⁻¹
DEBSMod6+TE [2]; MatB regeneration
  [F-TKL]/[H-TKL]: 10.3 ± 0.1
DEBSMod6+TE [2]; [5]
  [F-TKL]: 7,390 ± 520 nM
DEBSMod6+TE [2]; No regeneration
  [F-TKL]/[H-TKL]: >9
DEBSMod6+TE [2]; No regeneration, equimolar malonyl-CoA and fluoromalonyl-CoA (1 mM), mean ± s.d. (n = 3)
  [F-TKL]: 450 ± 60 nM
DEBSMod6+TE [2]; direct competition, equimolar (1 mM) fluoromalonyl-CoA and malonyl-CoA
  fold more F-TKL than H-TKL produced: at least 10 fold
DEBSMod2/AT^0
  conversion of NDK-SNAC to R-TKL: 43%

## O=C(O)CF [Fluoroacetate, reference compound]
[3]; one-pot AckA-Pta/ACCase carboxylation
  fold slower rate of conversion compared to acetate: 4.5 fold

## CCC1OC(=O)CC(O)C1C (stereo not drawn) [H-TKL, 2-desmethyltriketide lactone, reference compound]
DEBSMod6+TE [2]; [5]
  [H-TKL]: 720 ± 50 nM
DEBSMod6+TE [2]; No regeneration, equimolar malonyl-CoA and fluoromalonyl-CoA (1 mM)
  [H-TKL]: <50 nM
DEBSMod2/AT^0
  conversion of NDK-SNAC to R-TKL: < 0.01%

## CC(C)(COP(=O)(O)OP(=O)(O)OC[C@H]1O[C@@H](n2cnc3c(N)ncnc32)[C@H](O)[C@@H]1OP(=O)(O)O)[C@@H](O)C(=O)NCCC(=O)NCCSC(=O)CC(=O)O [Malonyl-CoA]
DEBSMod6+TE [4]
  v0 (rate of acyl-CoA hydrolysis): 6.1 ± 0.4 µM/min
  Relative rate of acyl-CoA hydrolysis: 4.5

## CC(C(=O)O)C(=O)SCCNC(=O)CCNC(=O)[C@H](O)C(C)(C)COP(=O)(O)OP(=O)(O)OC[C@H]1O[C@@H](n2cnc3c(N)ncnc32)[C@H](O)[C@@H]1OP(=O)(O)O (stereo partly drawn) [Methylmalonyl-CoA]
DEBSMod6+TE [4]
  v0 (rate of acyl-CoA hydrolysis): 1.36 ± 0.05 µM/min
  Relative rate of acyl-CoA hydrolysis: 1.0

## CC[C@@H](O)[C@H](C)C(=O)SCCNC(C)=O [NDK-SNAC, (2S,3R)-2-methyl-3-hydroxypentanoyl-N-acetylcysteamine thioester]
DEBSMod2/AT^0; fluoromalonyl-CoA regeneration system
  NDK-SNAC consumed: 82%
DEBSMod2/AT^0; malonyl-CoA regeneration system
  NDK-SNAC consumed: 100%

## CC[C@H]1OC(=O)[C@H](C)C(=O)[C@H]1C [TKL, (2R,4S,5R)-2,4-Dimethyl-3-oxo-5-hydroxy-n-heptanoic acid β-lactone, reference compound]
DEBSMod6+TE [1]; 2.5 mM NDK-SNAC
  Initial rate of TKL formation: 1.5 min⁻¹
DEBSMod2/AT^0
  conversion of NDK-SNAC to R-TKL: all

## CC(=O)C(F)C(=O)SCCNC(=O)CCNC(=O)[C@H](O)C(C)(C)COP(=O)(O)OP(=O)(O)OC[C@H]1O[C@@H](n2cnc3c(N)ncnc32)[C@H](O)[C@@H]1OP(=O)(O)O (stereo partly drawn) [acetofluoroacetyl-CoA]
NphT7
  stability under the assay conditions: degrade fairly rapidly

## CC(C)(COP(=O)(O)OP(=O)(O)OC[C@H]1O[C@@H](n2cnc3c(N)ncnc32)[C@H](O)[C@@H]1OP(=O)(O)O)[C@@H](O)C(=O)NCCC(=O)NCCSC(=O)CF [fluoroacetyl-CoA]
[3]; judged from overall extent of reaction
  covalent inactivation of the ACCase: not significant
